“And” between values parts separate entries of the source, which are not always exact repeats. Equal values may be shown once.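 These data come from cells grown in 96-well plates and exposed to compound for 48 hours at five concentrations. Abbreviation: GI50, concentration required for 50% inhibition of growth. TGI is the concentration that stops growth completely.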
Columns and labels:
Assay in all cases: inhibition of tumour cell growth, NCI panel, 48 h
[1] = system: MALME-3M melanoma
[2] = system: SNB-19 CNS
[3] = system: ACHN renal
[4] = system: HOP-92 NSCLC
[5] = system: SF-539 CNS
[6] = system: OVCAR-3 ovarian
[7] = system: RPMI-8226 leukemia
[8] = system: SNB-75 CNS
[9] = system: KM12 colon
[10] = system: NCI/ADR-RES ovarian

| SMILES | TGI [1] | TGI [2] | TGI [3] | TGI [4] | TGI [5] | TGI [6] | TGI [7] | TGI [8] | TGI [9] | TGI [10] | GI50 [1] | GI50 [10] | GI50 [4] | GI50 [5] | GI50 [6] | GI50 [8] | GI50 [2] | GI50 [3] | GI50 [7] | GI50 [9] |
| --- | --- | --- | --- | --- | --- | --- | --- | --- | --- | --- | --- | --- | --- | --- | --- | --- | --- | --- | --- | --- |
| O=C(c1ccc([N+](=O)[O-])cc1[N+](=O)[O-])N(/N=C/C=C/c1ccccc1)c1nnc(-c2ccccc2)c(-c2ccccc2)n1 | > 100 µM | > 100 µM | 78.1 µM | 51.2 µM | 30.1 µM | > 100 µM | > 100 µM | 86.8 µM | > 100 µM |  |  |  |  |  |  |  |  |  |  |  |
| CCOC(=O)Cc1csc(Nc2ccccc2[N+](=O)[O-])n1 | > 100 µM | > 100 µM | > 100 µM | > 100 µM | > 100 µM | > 100 µM | > 100 µM | > 100 µM | > 100 µM |  |  |  |  |  |  |  |  |  |  |  |
| Cc1nc2c(N)ncnc2o1 | > 100 µM | > 100 µM | > 100 µM | > 100 µM | > 100 µM | > 100 µM |  | > 100 µM | > 100 µM |  |  |  |  |  |  |  |  |  |  |  |
| O=c1[nH]c(=O)n(C2CC(O)C(CO)O2)cc1OS(=O)(=O)C(F)(F)F (stereo not drawn) | > 100 µM | > 100 µM | > 100 µM | > 100 µM | > 100 µM | > 100 µM | > 100 µM | > 100 µM | > 100 µM |  |  |  |  |  |  |  |  |  |  |  |
| CC1=C(C(=O)Nc2ccccc2)C(c2ccc(Cl)c(Cl)c2)C(C(=O)Nc2ccccc2)=C(C)N1 | 26.7 µM | 32.6 µM | 24.9 µM |  | 32.3 µM | 25.3 µM |  | 35 µM | 25.7 µM |  |  |  |  |  |  |  |  |  |  |  |
| CSC[C@H](NC(=O)COc1cccc2cnccc12)C(=O)NC(Cc1ccccc1)C(O)C(=O)N1CSC[C@H]1C(=O)NC(C)(C)C (stereo partly drawn) | > 100 µM | > 100 µM | 84.9 µM |  | 31.4 µM | > 100 µM | > 100 µM | > 100 µM | > 100 µM | > 100 µM |  |  |  |  |  |  |  |  |  |  |
| COC(=O)c1c2c(c(C)[n+]([O-])c1C)C(=O)C(NCc1ccc(Br)cc1)=CC2=O | 0.8 µM |  |  | 7.15 µM | 4.75 µM | 0.957 µM |  | 6.79 µM |  | 7.03 µM | 0.243 µM | 1.97 µM | 3.07 µM | 2.13 µM | 0.301 µM | 2.2 µM |  |  |  |  |
| CCSc1nc(N=Cc2ccccc2O)c2cn[nH]c2n1 | 34.7 µM | > 100 µM | > 100 µM |  | > 100 µM | 61.2 µM | > 100 µM |  | 37 µM | 63.6 µM | 0.137 µM | 20.3 µM |  | 34.2 µM | 13.8 µM |  | 56.1 µM | 29.8 µM | 23.2 µM | 13.2 µM |
| C=C(C)[C@@H]1CC[C@]2(CN)CC[C@]3(C)[C@H](CC[C@@H]4[C@@]5(C)CCCNC(C)(C)[C@@H]5CC[C@]43C)[C@@H]12 | 3.63 µM |  | 3.19 µM | 3.28 µM | 3.09 µM |  |  | 3.11 µM |  |  | 1.75 µM |  | 1.69 µM | 1.62 µM |  | 1.63 µM |  | 1.77 µM |  |  |
| Cc1cc(C)nc(NS(=O)(=O)c2ccc(Nc3c4ccccc4nc4c(C(=O)N5CCN(CCO)CC5)cccc34)cc2)n1 | > 100 µM | > 100 µM | > 100 µM | > 100 µM | > 100 µM | > 100 µM |  | > 100 µM | > 100 µM |  |  |  |  |  |  |  |  |  |  |  |
| CCOC(=O)C(Br)=C1OC(=O)c2ccccc2-c2ccccc21 (mixture of isomers) | 37.6 µM |  | 29 µM | 29.5 µM | 46.8 µM | 35.9 µM | 38.1 µM | 51 µM | 34.9 µM |  |  |  |  |  |  |  |  |  |  |  |
| CCOc1ccc(OCC(=O)O)c2c1CCCC2=O | > 100 µM | > 100 µM | > 100 µM | > 100 µM | > 100 µM | > 100 µM | > 100 µM | > 100 µM | > 100 µM |  |  |  |  |  |  |  |  |  |  |  |
| O=C1C/C(Br)=C\c2ccccc2-c2ccccc21 | 4.94 µM | 19.5 µM | 4.5 µM | 5.27 µM | 4.85 µM | 7.52 µM | 5.28 µM | 7.65 µM | 11.5 µM |  |  |  |  |  |  |  |  |  |  |  |
| c1ccc2c(c1)CCc1c(-c3ccncc3)n[nH]c1-2 | > 100 µM | > 100 µM | > 100 µM |  | > 100 µM | 33.3 µM | 84.2 µM | 77.7 µM | 55.7 µM |  |  |  |  |  |  |  |  |  |  |  |
| COc1cc(C[P+](c2ccccc2)(c2ccccc2)c2ccccc2)cc(OC)c1OC | > 100 µM | > 100 µM | > 100 µM | > 100 µM | > 100 µM | > 100 µM | > 100 µM | > 100 µM | > 100 µM |  |  |  |  |  |  |  |  |  |  |  |
| CCCCCCCCCCCC[N+]12CC[N+](CCN)(CC1)CC2 | > 100 µM | 64.3 µM | > 100 µM | > 100 µM | > 100 µM | > 100 µM | > 100 µM | > 100 µM | 62.7 µM |  |  |  |  |  |  |  |  |  |  |  |
| C/C(=N\NC(N)=O)c1sc(-c2nc(C)c(/C(C)=N/NC(N)=O)s2)nc1C | > 100 µM | > 100 µM | > 100 µM | > 100 µM | > 100 µM | > 100 µM | > 100 µM | > 100 µM | > 100 µM |  |  |  |  |  |  |  |  |  |  |  |
| CC(C)C1CN(C(=O)OCc2ccccc2)C2N1C(=O)C2(C)OCc1ccccc1 (stereo not drawn) | > 100 µM | > 100 µM | > 100 µM |  | > 100 µM | > 100 µM | 66.6 µM | 59.5 µM |  |  |  |  |  |  |  |  |  |  |  |  |
| CCCCNCCCNCCCNC(=O)c1csc(-c2csc(CCNC(=O)C(NC(=O)C(C)C(O)C(C)NC(=O)C(NC(=O)c3nc(C(CC(N)=O)NCC(N)C(N)=O)nc(N)c3C)C(OC3OC(CO)C(O)C(O)C3OC3OC(CO)C(O)C(OC(N)=O)C3O)c3cnc[nH]3)C(C)O)n2)n1 (stereo not drawn) | 16.9 µM | 50 µM and > 65.7 µM |  | 1.79 µM | 0.357 µM and 0.235 µM | 50 µM and 22.9 µM | > 100 µM | 0.716 µM and 3.37 µM | > 100 µM |  | 0.697 µM |  |  | 0.0449 µM | 30.3 µM | 0.0257 µM |  | 0.0491 µM | 19.7 µM | > 50 µM |
| NC(N)=Nc1nc2ccccc2o1 | > 100 µM | > 100 µM | > 100 µM | > 100 µM | > 100 µM | > 100 µM |  | > 100 µM | > 100 µM | > 100 µM | > 100 µM | > 100 µM | > 100 µM | > 100 µM | > 100 µM | > 100 µM | > 100 µM | > 100 µM |  | > 100 µM |
